Laboratory results taken from US6960574B2, “Antagonists of RF-amide neuropeptides” (University of Florida, priority 2002, dated 2005).
Peptide text beside a SMILES is read from it. * marks the point of attachment. Dansyl = CN(C)c1cccc2c(S(=O)(=O)*)cccc12

tested on: receptor labeled by the radioiodinated analogue of 1 (4, [125I]-YLFQPQRF-NH2); neuropeptide FF receptor; test: Competitive radioligand binding against 4 ([125I]Y8F-amide); conditions: mixture-based positional scanning; difference from averaged radioligand displacement of whole library (0); about 80 a.u. = 10-fold change in Ki

Going from `CC(C)C[C@H](NS(=O)(=O)c1cccc2c(N(C)C)cccc12)C(=O)N[C@@H](Cc1ccccc1)C(=O)N[C@@H](CCCNC(=N)N)C(N)=O` [Dansyl-LFR-amide] (Dansyl-Leu-Phe-Arg-NH2) to `CSCC[C@H](NS(=O)(=O)c1cccc2c(N(C)C)cccc12)C(=O)N[C@@H](Cc1ccccc1)C(=O)N[C@@H](CCCNC(=N)N)C(N)=O` [Dansyl-MFR-amide] (Dansyl-Met-Phe-Arg-NH2), the “Relative Binding Index (RBI)” value falls from −33 a.u to −45 a.u.

Compared with `CC(C)C[C@H](NS(=O)(=O)c1cccc2c(N(C)C)cccc12)C(=O)NCC(=O)N[C@@H](CCCNC(=N)N)C(N)=O` [Dansyl-LGR-amide] (Dansyl-Leu-Gly-Arg-NH2), `CSCC[C@H](NS(=O)(=O)c1cccc2c(N(C)C)cccc12)C(=O)NCC(=O)N[C@@H](CCCNC(=N)N)C(N)=O` [Dansyl-MGR-amide] (Dansyl-Met-Gly-Arg-NH2) is lower in “Relative Binding Index (RBI)” value: −27 a.u for the first, −39 a.u for the second.

Compared with `CC(C)C[C@H](NS(=O)(=O)c1cccc2c(N(C)C)cccc12)C(=O)N[C@@H](Cc1cnc[nH]1)C(=O)N[C@@H](CCCNC(=N)N)C(N)=O` [Dansyl-LHR-amide] (Dansyl-Leu-His-Arg-NH2), `CC(C)C[C@H](NS(=O)(=O)c1cccc2c(N(C)C)cccc12)C(=O)N[C@@H](CO)C(=O)N[C@@H](CCCNC(=N)N)C(N)=O` [Dansyl-LSR-amide] (Dansyl-Leu-Ser-Arg-NH2) is higher in “Relative Binding Index (RBI)” value: −38 a.u for the first, −11 a.u for the second.

First: CC[C@H](C)[C@H](NC(=O)[C@H](CC(C)C)NS(=O)(=O)c1cccc2c(N(C)C)cccc12)C(=O)N[C@@H](CCCNC(=N)N)C(N)=O [Dansyl-LIR-amide] (Dansyl-Leu-Ile-Arg-NH2)
Second: CC(C)C[C@H](NS(=O)(=O)c1cccc2c(N(C)C)cccc12)C(=O)N[C@H](C(=O)N[C@@H](CCCNC(=N)N)C(N)=O)C(C)C [Dansyl-LVR-amide] (Dansyl-Leu-Val-Arg-NH2)
The “Relative Binding Index (RBI)” value of the first is higher: −26 a.u for the first, −37 a.u for the second.

Compared with `CC(C)C[C@H](NS(=O)(=O)c1cccc2c(N(C)C)cccc12)C(=O)N[C@@H](CCCCN)C(=O)N[C@@H](CCCNC(=N)N)C(N)=O` [Dansyl-LKR-amide] (Dansyl-Leu-Lys-Arg-NH2), `CC(C)C[C@H](NS(=O)(=O)c1cccc2c(N(C)C)cccc12)C(=O)N[C@@H](CCCNC(=N)N)C(=O)N[C@@H](CCCNC(=N)N)C(N)=O` [Dansyl-LRR-amide] (Dansyl-Leu-Arg-Arg-NH2) is higher in “Relative Binding Index (RBI)” value: −34 a.u for the first, −33 a.u for the second.

Going from `CC(C)C[C@H](NC(=O)[C@H](CC(C)C)NS(=O)(=O)c1cccc2c(N(C)C)cccc12)C(=O)N[C@@H](CCCNC(=N)N)C(N)=O` [Dansyl-LLR-amide] to `CSCC[C@H](NC(=O)[C@H](CC(C)C)NS(=O)(=O)c1cccc2c(N(C)C)cccc12)C(=O)N[C@@H](CCCNC(=N)N)C(N)=O` [Dansyl-LMR-amide] (Dansyl-Leu-Met-Arg-NH2), the “Relative Binding Index (RBI)” value rises from −40 a.u to −32 a.u.

Going from `CC(C)C[C@H](NS(=O)(=O)c1cccc2c(N(C)C)cccc12)C(=O)N[C@@H](CC(N)=O)C(=O)N[C@@H](CCCNC(=N)N)C(N)=O` [Dansyl-LNR-amide] (Dansyl-Leu-Asn-Arg-NH2) to `CC(C)C[C@H](NS(=O)(=O)c1cccc2c(N(C)C)cccc12)C(=O)N[C@@H](CCC(N)=O)C(=O)N[C@@H](CCCNC(=N)N)C(N)=O` [Dansyl-LQR-amide] (Dansyl-Leu-Gln-Arg-NH2), the “Relative Binding Index (RBI)” value rises from −31 a.u to −18 a.u.

Compared with `CC(C)C[C@H](NS(=O)(=O)c1cccc2c(N(C)C)cccc12)C(=O)N1CCC[C@H]1C(=O)N[C@@H](CCCNC(=N)N)C(N)=O` [Dansyl-LPR-amide] (Dansyl-Leu-Pro-Arg-NH2), `CSCC[C@H](NS(=O)(=O)c1cccc2c(N(C)C)cccc12)C(=O)N1CCC[C@H]1C(=O)N[C@@H](CCCNC(=N)N)C(N)=O` [Dansyl-MPR-amide] (Dansyl-Met-Pro-Arg-NH2) is lower in “Relative Binding Index (RBI)” value: −29 a.u for the first, −41 a.u for the second.

Going from `CC(C)C[C@H](NS(=O)(=O)c1cccc2c(N(C)C)cccc12)C(=O)N[C@H](C(=O)N[C@@H](CCCNC(=N)N)C(N)=O)[C@@H](C)O` [Dansyl-LTR-amide] (Dansyl-Leu-Thr-Arg-NH2) to `CSCC[C@H](NS(=O)(=O)c1cccc2c(N(C)C)cccc12)C(=O)N[C@H](C(=O)N[C@@H](CCCNC(=N)N)C(N)=O)[C@@H](C)O` [Dansyl-MTR-amide] (Dansyl-Met-Thr-Arg-NH2), the “Relative Binding Index (RBI)” value falls from −26 a.u to −38 a.u.

Compared with `CC(C)C[C@H](NS(=O)(=O)c1cccc2c(N(C)C)cccc12)C(=O)N[C@@H](Cc1c[nH]c2ccccc12)C(=O)N[C@@H](CCCNC(=N)N)C(N)=O` [Dansyl-LWR-amide] (Dansyl-Leu-Trp-Arg-NH2), `CSCC[C@H](NS(=O)(=O)c1cccc2c(N(C)C)cccc12)C(=O)N[C@@H](Cc1c[nH]c2ccccc12)C(=O)N[C@@H](CCCNC(=N)N)C(N)=O` [Dansyl-MWR-amide] (Dansyl-Met-Trp-Arg-NH2) is lower in “Relative Binding Index (RBI)” value: −23 a.u for the first, −35 a.u for the second.

Going from `CC(C)C[C@H](NS(=O)(=O)c1cccc2c(N(C)C)cccc12)C(=O)N[C@@H](Cc1ccc(O)cc1)C(=O)N[C@@H](CCCNC(=N)N)C(N)=O` [Dansyl-LYR-amide] (Dansyl-Leu-Tyr-Arg-NH2) to `CSCC[C@H](NS(=O)(=O)c1cccc2c(N(C)C)cccc12)C(=O)N[C@@H](Cc1ccc(O)cc1)C(=O)N[C@@H](CCCNC(=N)N)C(N)=O` [Dansyl-MYR-amide] (Dansyl-Met-Tyr-Arg-NH2), the “Relative Binding Index (RBI)” value falls from −33 a.u to −45 a.u.

Going from `CSCC[C@H](NS(=O)(=O)c1cccc2c(N(C)C)cccc12)C(=O)N[C@@H](C)C(=O)N[C@@H](CCCNC(=N)N)C(N)=O` [Dansyl-MAR-amide] (Dansyl-Met-Ala-Arg-NH2) to `CSCC[C@H](NS(=O)(=O)c1cccc2c(N(C)C)cccc12)C(=O)N[C@H](C(=O)N[C@@H](CCCNC(=N)N)C(N)=O)C(C)C` [Dansyl-MVR-amide] (Dansyl-Met-Val-Arg-NH2), the “Relative Binding Index (RBI)” value rises from −93 a.u to −49 a.u.

First: CSCC[C@H](NS(=O)(=O)c1cccc2c(N(C)C)cccc12)C(=O)N[C@@H](CC(=O)O)C(=O)N[C@@H](CCCNC(=N)N)C(N)=O [Dansyl-MDR-amide] (Dansyl-Met-Asp-Arg-NH2)
Second: CSCC[C@H](NS(=O)(=O)c1cccc2c(N(C)C)cccc12)C(=O)N[C@@H](CCC(=O)O)C(=O)N[C@@H](CCCNC(=N)N)C(N)=O [Dansyl-MER-amide] (Dansyl-Met-Glu-Arg-NH2)
The “Relative Binding Index (RBI)” value of the first is lower: −62 a.u for the first, −44 a.u for the second.

Compared with `CSCC[C@H](NS(=O)(=O)c1cccc2c(N(C)C)cccc12)C(=O)N[C@@H](Cc1c[nH]cn1)C(=O)N[C@@H](CCCNC(=N)N)C(N)=O` [Dansyl-MHR-amide] (Dansyl-Met-His-Arg-NH2), `CN(C)c1cccc2c(S(=O)(=O)N[C@@H](CC(N)=O)C(=O)N[C@@H](Cc3c[nH]cn3)C(=O)N[C@@H](CCCNC(=N)N)C(N)=O)cccc12` [Dansyl-NHR-amide] (Dansyl-Asn-His-Arg-NH2) is higher in “Relative Binding Index (RBI)” value: −50 a.u for the first, 7 a.u for the second.

Going from `CC[C@H](C)[C@H](NC(=O)[C@H](CCSC)NS(=O)(=O)c1cccc2c(N(C)C)cccc12)C(=O)N[C@@H](CCCNC(=N)N)C(N)=O` [Dansyl-MIR-amide] (Dansyl-Met-Ile-Arg-NH2) to `CSCC[C@H](NS(=O)(=O)c1cccc2c(N(C)C)cccc12)C(=O)N[C@@H](CC(C)C)C(=O)N[C@@H](CCCNC(=N)N)C(N)=O` [Dansyl-MLR-amide] (Dansyl-Met-Leu-Arg-NH2), the “Relative Binding Index (RBI)” value falls from −37 a.u to −52 a.u.

Going from `CSCC[C@H](NS(=O)(=O)c1cccc2c(N(C)C)cccc12)C(=O)N[C@@H](CCCCN)C(=O)N[C@@H](CCCNC(=N)N)C(N)=O` [Dansyl-MKR-amide] (Dansyl-Met-Lys-Arg-NH2) to `CSCC[C@H](NS(=O)(=O)c1cccc2c(N(C)C)cccc12)C(=O)N[C@@H](CCCNC(=N)N)C(=O)N[C@@H](CCCNC(=N)N)C(N)=O` [Dansyl-MRR-amide] (Dansyl-Met-Arg-Arg-NH2), the “Relative Binding Index (RBI)” value rises from −46 a.u to −45 a.u.

Compared with `CSCC[C@H](NC(=O)[C@H](CCSC)NS(=O)(=O)c1cccc2c(N(C)C)cccc12)C(=O)N[C@@H](CCCNC(=N)N)C(N)=O` [Dansyl-MMR-amide] (Dansyl-Met-Met-Arg-NH2), `CSCC[C@H](NS(=O)(=O)c1cccc2c(N(C)C)cccc12)C(=O)N[C@@H](CO)C(=O)N[C@@H](CCCNC(=N)N)C(N)=O` [Dansyl-MSR-amide] (Dansyl-Met-Ser-Arg-NH2) is higher in “Relative Binding Index (RBI)” value: −44 a.u for the first, −23 a.u for the second.

Compared with `CSCC[C@H](NS(=O)(=O)c1cccc2c(N(C)C)cccc12)C(=O)N[C@@H](CC(N)=O)C(=O)N[C@@H](CCCNC(=N)N)C(N)=O` [Dansyl-MNR-amide], `CSCC[C@H](NS(=O)(=O)c1cccc2c(N(C)C)cccc12)C(=O)N[C@@H](CCC(N)=O)C(=O)N[C@@H](CCCNC(=N)N)C(N)=O` [Dansyl-MQR-amide] (Dansyl-Met-Gln-Arg-NH2) is higher in “Relative Binding Index (RBI)” value: −43 a.u for the first, −30 a.u for the second.

First: C[C@H](NC(=O)[C@H](CC(N)=O)NS(=O)(=O)c1cccc2c(N(C)C)cccc12)C(=O)N[C@@H](CCCNC(=N)N)C(N)=O [Dansyl-NAR-amide] (Dansyl-Asn-Ala-Arg-NH2)
Second: CC[C@H](C)[C@H](NC(=O)[C@H](CC(N)=O)NS(=O)(=O)c1cccc2c(N(C)C)cccc12)C(=O)N[C@@H](CCCNC(=N)N)C(N)=O [Dansyl-NIR-amide] (Dansyl-Asn-Ile-Arg-NH2)
The “Relative Binding Index (RBI)” value of the first is lower: −36 a.u for the first, 19 a.u for the second.

Going from `CN(C)c1cccc2c(S(=O)(=O)N[C@@H](CC(N)=O)C(=O)N[C@@H](CC(=O)O)C(=O)N[C@@H](CCCNC(=N)N)C(N)=O)cccc12` [Dansyl-NDR-amide] (Dansyl-Asn-Asp-Arg-NH2) to `CN(C)c1cccc2c(S(=O)(=O)N[C@@H](CC(N)=O)C(=O)NCC(=O)N[C@@H](CCCNC(=N)N)C(N)=O)cccc12` [Dansyl-NGR-amide] (Dansyl-Asn-Gly-Arg-NH2), the “Relative Binding Index (RBI)” value rises from −5 a.u to 18 a.u.

In the case of `CN(C)c1cccc2c(S(=O)(=O)N[C@@H](CC(N)=O)C(=O)N[C@@H](Cc3ccccc3)C(=O)N[C@@H](CCCNC(=N)N)C(N)=O)cccc12` [Dansyl-NFR-amide] (Dansyl-Asn-Phe-Arg-NH2), the “Relative Binding Index (RBI)” value was 11 a.u.
